We go through 4 molecules from BindingDB's records for doi:10.1021/acs.jmedchem.0c00870 (Tu Dortmund University, 2020).

Experiment [1] can be described thus: Inhibiton of EGFR (unknown origin) expressed in human A431 cells assessed as reduction in EGFR induced cell viability after 96 hrs by CellTiter-Glo assay.
A short description of experiment [2]: Inhibiton of EGFR L858R/T790M mutant (unknown origin) expressed in human NCI-H1975 cells assessed as reduction in EGFR induced cell viability after 96 hrs by CellTiter-Glo assay.

`C=CC(=O)Nc1cc(-c2c[nH]c3ncnc(Nc4ccc(OCc5ccccn5)c(Cl)c4)c23)ccc1OCCN(C)C`: the concentration for half-maximal inhibition (IC50) in experiment [1] is 862 nM; in experiment [2], 807 nM.

As for `C=CC(=O)Nc1cccc(-c2c[nH]c3ncnc(Nc4ccc(CN5C(=O)c6ccccc6C5=O)cc4)c23)c1`, the figures for the half-maximal inhibitory concentration (IC50) in experiment [1] and in experiment [2] were 1570 nM and 2660 nM, respectively.

As for `C=CC(=O)Nc1cccc(-c2c[nH]c3ncnc(Nc4ccc(OCc5ccccn5)c(Cl)c4)c23)c1`, the results for the concentration for half-maximal inhibition (IC50) in experiment [1] and in experiment [2] were 1680 nM and 739 nM, respectively.

As to `C=CC(=O)Nc1cc(-c2c[nH]c3ncnc(Nc4ccc5c(cnn5Cc5ccccc5)c4)c23)ccc1OCCO`, the IC50 in experiment [1] is 2240 nM.
